Laboratory results published in US20200129499A1, “COMBINATION OF TASQUINIMOD OR A PHARMACEUTICALLY ACCEPTABLE SALT THEREOF AND A PD-1 AND/OR PD-L1 INHIBITOR, FOR USE AS A MEDICAMENT” (ACTIVE BIOTECH AB, priority 2015, published 2020).
Entries after “also recorded” stand apart in the source; their conditions may differ.

Key:
MBT-2 tumors [1] = assay: Subcutaneous MBT-2 tumor model, early or established tumors (Examples 3 and 4); assay type: in vivo, mouse
Procedure: FIG. 4: Treatment with tasquinimod had no effect on established MBT-2 tumor growth and induced an alteration in the profile of PD-1/PD-L1 axis. (A) Growth curves and (B) tumor weight of MBT-2 tumors treated with tasquinimod at 30 mg/kg (oral gavage, twice daily) after randomization at day 11 post tumor-cell inoculation (n=12). Mice were sacrificed. Tumors were harvested, digested and then subjected to surface staining. (C) PD-L1 expression on myeloid cells treated with vehicle (control) or tasquinimod 30 mg/kg at day 15. (D) Quantitative data of the Median Fluorescence Intensity of PD-L1 gated on infiltrating myeloid cells CD1 1b+ (*, P<0.05; Mann-Whitney test, n=5 mice per group).
FIG. 5: 106 MBT-2 cells were injected subcutaneously in C3H/HeNRj mice. Animals were treated with Anti-PD-L1 or its isotype (IgG2B) at the dose of 200 μg by intraperitoneal injection. Treatment started at (A) day 1 (Student test; left panel: *, P=0.0223), or (B) day 11 post tumor cell inoculation. […]
MBT-2 cells (1×106) were injected subcutaneously into the flanks of mice and resulting tumors were allowed to grow for 21 days. Tumors were measured by caliper and tumor volume (mm3) was calculated using the formula=(Width) 2×Length 12. […]

MBT-2 tumors [2] = assay: Differential mRNA expression (qRT-PCR) in established MBT-2 tumors (Table S1); assay type: in vivo, mouse
Procedure: The relative mRNA expression of different genes was examined in MBT-2 tumors of treated animals with tasquinimod as compared to control group. Treatment started at day 11 post-tumor cell inoculation and qRT-PCR analysis was performed at day 15. Results are represented as mean fold-change compared with control. P values were evaluated using student test.
RNA extraction of murine CD1 1b+ was performed using the PicoPure® RNA Isolation Kit (Life Technologies). RNA in tumors was isolated from 100 μ ? -thick cryosections of OCT-embedded tumors using Trizol Reagent (Life Technologies). cDNAs were prepared using the High-Capacity cDNA Reverse Transcription Kit (Life Technologies) following the manufacturer's instructions. cDNA from CD1 1b+ isolated cells was pre-amplified (14 cycles) using the TaqMan PreAmp Master Mix (Life Technologies). Real time PCR (q-PCR) was performed with a two-step PCR protocol (95° C. for 10 min, followed by 40 cycles at 95° C. for 15 s and 60° C. for 1 min) using Taqman gene expression (Life Technologies). The probes that were used are documented in Table S2. Hmbs was used as “housekeeping” gene whose expression was correlated to other housekeeping quantified genes (e.g. Cyclophilin A). Expression levels were calculated as normalized ACt expression values between target gene and “housekeeping” genes.

MBT-2 tumor cells = assay: Survival in orthotopic MBT-2 bladder tumor model; assay type: in vivo, mouse; conditions: tasquinimod 30 mg/kg twice a day 21 days; Anti-PD1 10 mg/kg i.p. twice weekly; control 29 days; FIG. 9
Procedure: FIG. 9: MBT-2 tumor cells were injected orthotopically into female C3H/HeJ mice. Briefly, after a period of 4-hour of water deprivation, mice were anaesthetized using a mix of Ketamine and Xylazine. A catheter (ref: 381212 24G, BD Insyte) was inserted in the bladder through the urethra and 30 μI 0.1 N HCl was injected for 15 seconds, then replaced by 30 μI 0.1 N NaOH for 15 seconds. MBT-2 tumor cells (2×1 06) were instilled into the bladder for 45 minutes. The treatment was initiated at day 3. Tasquinimod was given at the dose of 30 mg/kg by oral gavage twice a day for 21 consecutive days. Anti-PD1 (clone: RMP1-14) or its isotype control (clone 2A3) was injected by intraperitoneal route at the dose of 10 mg/kg twice weekly for two consecutive weeks (at D4, D7, D11 and D14). The survival of MBT-2 tumor-bearing mice treated with anti-PD1, tasquinimod, the combination, or IgG control are shown in FIG. 9 (n=13). Dunnet-Hsu test was used to compare overall survival between groups.

PD-1 = PD-1 expression level after tasquinimod treatment (data not shown); assay type: in vivo, mouse; conditions: established MBT-2 tumors
[3] = system: human prostate, breast, bladder and colon tumor xenografts; conditions: pre-clinical models, Isaacs et al. 2013; cited from earlier work
[4] = tasquinimod 30 mg/kg from day 11, qRT-PCR at day 15

Structure (SMILES): COc1cccc2c1c(O)c(C(=O)N(C)c1ccc(C(F)(F)F)cc1)c(=O)n2C [tasquinimod, 4-hydroxy-5-methoxy-N,1-dimethyl-2-oxo-N-[4-(trifluoromethyl)phenyl]-1,2-dihydroquinoline-3-carboxamide]
- tumor growth (tumor volume, mean±SEM) (MBT-2 tumors [1]; established tumors, treatment from day 8, FIG. 6B): 343±67 mm3
- tumor growth of established MBT-2 tumors (MBT-2 tumors [1]; treatment started at tumor volume 50-100 mm3, tasquinimod 30 mg/kg twice daily, Anti-PD-L1 200 μg i.p.): no effect; also recorded: lost its ability to inhibit tumor growth
- mRNA expression of PD-L1 in MBT-2 tumors (MBT-2 tumors [2]; established tumors, tasquinimod 30 mg/kg): increased
- Fold change tasquinimod/control, CCL5 mRNA (MBT-2 tumors [2]; [4]): 0.88
- Fold change tasquinimod/control, CCL7 mRNA (MBT-2 tumors [2]; [4]): 0.90
- Fold change tasquinimod/control, Ccl2 mRNA (MBT-2 tumors [2]; [4]): 0.86
- Fold change tasquinimod/control, Cd274/PD-L1 mRNA (MBT-2 tumors [2]; [4]): 1.46
- Fold change tasquinimod/control, Cxcl5 mRNA (MBT-2 tumors [2]; [4]): 2.31
- Fold change tasquinimod/control, Cxcl9 mRNA (MBT-2 tumors [2]; [4]): 0.80
- Fold change tasquinimod/control, Cxcl11 mRNA (MBT-2 tumors [2]; [4]): 1.63
- Fold change tasquinimod/control, II-12b mRNA (MBT-2 tumors [2]; [4]): 1.71
- Fold change tasquinimod/control, Ifng mRNA (MBT-2 tumors [2]; [4]): 1.53
- Fold change tasquinimod/control, Mrc1/CD206 mRNA (MBT-2 tumors [2]; [4]): 0.90
- Fold change tasquinimod/control, Nos2 mRNA (MBT-2 tumors [2]; [4]): 1.76
- Fold change tasquinimod/control, Serpinb2 mRNA (MBT-2 tumors [2]; [4]): 3.65
- Fold change tasquinimod/control, Tnf mRNA (MBT-2 tumors [2]; [4]): 1.19
- median survival of mice (MBT-2 tumor cells): 27 days
- expression level of PD-1 (PD-1): not changed
- efficacy as monotherapeutic agent against tumor xenografts [3]: effective as a monotherapeutic agent
